Laboratory results: publication PMC10721329, “Quisinostat is a brain-penetrant radiosensitizer in glioblastoma” (JCI Insight, 2023)
pIC50: −log10 of the molar value. Where “and” joins values, the source holds several entries; their conditions need not be identical. Equal entries are not always repeated.

How the values were obtained:
Experiment in all cases: CellTiter-Glo dose-response cell viability assay
Assay type in all cases: cell-based, human
[1] = tested on: GB187 patient-derived GSC line
Procedure: (§1) QST (JNJ-26481585) is a second-generation hydroxamic acid harboring remarkable selectivity toward class I HDACs, with a biochemical IC50 of 0.1 nM for HDAC1 ([13]). […] To determine the cytotoxic effects of QST, we performed a dose-titration cell viability assay in 7 patient-derived GSC lines (BT145, GB187, GB239, GB282, GB71, GB82, and GB126) and 1 long-term serum-grown human GBM cell line (U87). Because GBMs display a high degree of intratumoral heterogeneity, we used GSCs derived from both primary and recurrent GBMs that harbored distinct genetic mutations or aberrations, growth rates, MGMT promoter methylation status, and gene expression profiles (Supplemental Figure 1; supplemental material available online with this article; https://doi.org/10.1172/jci.insight.167081DS1). Cell lines were treated with various concentrations of QST (10–1000 nM), and cell viability was measured 3–5 days later (Figure 1, A and B). […] Treatment with QST at the IC50 induced significant inhibition of proliferation (Ki67) and an increase in programmed cell death (cleaved caspase 3) in 2 different GSC lines (Figure 1, C and D). Additional analyses confirmed that QST induces apoptosis after short-term treatment through increased staining of the apoptotic marker annexin V (Figure 2A) and cell cycle arrest (in G2- or S-phase; Figure 2B and Supplemental Figure 1B).
(§2) GSCs were seeded in laminin-coated tissue culture–treated 96-well plates (clear bottom, white plate; Corning) at a density of 1000–5000 cells per well (cell line dependent) in GSC media. U87-MG were seeded using their normal growth conditions without laminin (10% bovine calf serum in DMEM). All cells were incubated at 37°C and allowed to adhere overnight. The next day, cells were treated with incremental concentrations of QST (Selleckchem; 0, 10, 25, 50, 100, 250, 500, and 1000 nM) diluted in media. Cells treated without QST were treated with DMSO diluted in media. Following treatment with QST, cells were grown for 3 to 5 days (cell line dependent), and cell viability was measured and quantified. All cell viability measurements were performed using the CellTiter-Glo luminescent cell viability assay (Promega) following the manufacturer’s instructions. For the sulforhodamine B colorimetric assay for cytotoxicity, the protocol was performed as described elsewhere ([33]). All cell viability results represent the mean of at least 3 biological replicates, each containing 3 technical replicates.

[2] = tested on: GB282 patient-derived GSC line
Procedure: as §1, §2

[3] = tested on: GB239 patient-derived GSC line
Procedure: as §1, §2

[4] = tested on: GB126 patient-derived GSC line; conditions: GB126 (GB126xTdT), no IR
Procedure: as §1, §2

Cn1cc(CNCC2CCN(c3ncc(C(=O)NO)cn3)CC2)c2ccccc21 [QST, quisinostat]
Cell viability (fraction of DMSO control) ([1]; GB187x, QST 10 nM (log[nM] 1)): 0.9255 and 0.9282
Cell viability (fraction of DMSO control) ([1]; GB187x, QST 25 nM (log[nM] 1.39794)): 0.8647 and 0.8308
Cell viability (fraction of DMSO control) ([1]; GB187x, QST 50 nM (log[nM] 1.69897)): 0.7684 and 0.7163
Cell viability (fraction of DMSO control) ([1]; GB187x, QST 100 nM (log[nM] 2)): 0.6258 and 0.5995
Cell viability (fraction of DMSO control) ([1]; GB187x, QST 250 nM (log[nM] 2.39794)): 0.5316 and 0.4983
Cell viability (fraction of DMSO control) ([1]; GB187x, QST 500 nM (log[nM] 2.69897)): 0.4749 and 0.464
Cell viability (fraction of DMSO control) ([1]; GB187x, QST 1000 nM (log[nM] 3)): 0.4026 and 0.4385
viability at 0.01 µM ([1]; Homo sapiens, GB187x, QST 10 nM (log[nM] 1), read-out: Cell viability (fraction of DMSO control)): 88.5%
viability at 0.025 µM ([1]; Homo sapiens, GB187x, QST 25 nM (log[nM] 1.39794), read-out: Cell viability (fraction of DMSO control)): 79.9%
viability at 0.05 µM ([1]; Homo sapiens, GB187x, QST 50 nM (log[nM] 1.69897), read-out: Cell viability (fraction of DMSO control)): 70.8%
viability at 0.1 µM ([1]; Homo sapiens, GB187x, QST 100 nM (log[nM] 2), read-out: Cell viability (fraction of DMSO control)): 59%
viability at 0.25 µM ([1]; Homo sapiens, GB187x, QST 250 nM (log[nM] 2.39794), read-out: Cell viability (fraction of DMSO control)): 53.2%
viability at 0.5 µM ([1]; Homo sapiens, GB187x, QST 500 nM (log[nM] 2.69897), read-out: Cell viability (fraction of DMSO control)): 47.1%
viability at 1 µM ([1]; Homo sapiens, GB187x, QST 1000 nM (log[nM] 3), read-out: Cell viability (fraction of DMSO control)): 43.9%
pIC50 ([1]; Homo sapiens, GB187, 3-5 days): 7.00
Cell viability (fraction of DMSO control) ([2]; GB282xTdT, QST 10 nM (log[nM] 1)): 0.8875 and 0.8957
Cell viability (fraction of DMSO control) ([2]; GB282xTdT, QST 25 nM (log[nM] 1.39794)): 0.7531 and 0.7488
Cell viability (fraction of DMSO control) ([2]; GB282xTdT, QST 50 nM (log[nM] 1.69897)): 0.6063 and 0.5741
Cell viability (fraction of DMSO control) ([2]; GB282xTdT, QST 100 nM (log[nM] 2)): 0.3901 and 0.3391
Cell viability (fraction of DMSO control) ([2]; GB282xTdT, QST 250 nM (log[nM] 2.39794)): 0.1846 and 0.1521
Cell viability (fraction of DMSO control) ([2]; GB282xTdT, QST 500 nM (log[nM] 2.69897)): 0.1138 and 0.08263
Cell viability (fraction of DMSO control) ([2]; GB282xTdT, QST 1000 nM (log[nM] 3)): 0.07483 and 0.05455
viability at 0.01 µM ([2]; Homo sapiens, GB282xTdT, QST 10 nM (log[nM] 1), read-out: Cell viability (fraction of DMSO control)): 98.4%
viability at 0.025 µM ([2]; Homo sapiens, GB282xTdT, QST 25 nM (log[nM] 1.39794), read-out: Cell viability (fraction of DMSO control)): 84.2%
viability at 0.05 µM ([2]; Homo sapiens, GB282xTdT, QST 50 nM (log[nM] 1.69897), read-out: Cell viability (fraction of DMSO control)): 68%
viability at 0.1 µM ([2]; Homo sapiens, GB282xTdT, QST 100 nM (log[nM] 2), read-out: Cell viability (fraction of DMSO control)): 43.8%
viability at 0.25 µM ([2]; Homo sapiens, GB282xTdT, QST 250 nM (log[nM] 2.39794), read-out: Cell viability (fraction of DMSO control)): 22%
viability at 0.5 µM ([2]; Homo sapiens, GB282xTdT, QST 500 nM (log[nM] 2.69897), read-out: Cell viability (fraction of DMSO control)): 13.2%
viability at 1 µM ([2]; Homo sapiens, GB282xTdT, QST 1000 nM (log[nM] 3), read-out: Cell viability (fraction of DMSO control)): 8.37%
pIC50 ([2]; Homo sapiens, GB282, 3-5 days): 7.18
Cell viability (fraction of DMSO control) ([3]; GB239x3, QST 10 nM (log[nM] 1)): 0.8159 and 0.818
Cell viability (fraction of DMSO control) ([3]; GB239x3, QST 25 nM (log[nM] 1.39794)): 0.6846 and 0.6788
Cell viability (fraction of DMSO control) ([3]; GB239x3, QST 50 nM (log[nM] 1.69897)): 0.5694 and 0.5366
Cell viability (fraction of DMSO control) ([3]; GB239x3, QST 100 nM (log[nM] 2)): 0.3389 and 0.3234
Cell viability (fraction of DMSO control) ([3]; GB239x3, QST 250 nM (log[nM] 2.39794)): 0.1954 and 0.198
Cell viability (fraction of DMSO control) ([3]; GB239x3, QST 500 nM (log[nM] 2.69897)): 0.1408 and 0.1494
Cell viability (fraction of DMSO control) ([3]; GB239x3, QST 1000 nM (log[nM] 3)): 0.1055 and 0.1137
viability at 0.01 µM ([3]; Homo sapiens, GB239x3, QST 10 nM (log[nM] 1), read-out: Cell viability (fraction of DMSO control)): 79.7%
viability at 0.025 µM ([3]; Homo sapiens, GB239x3, QST 25 nM (log[nM] 1.39794), read-out: Cell viability (fraction of DMSO control)): 64%
viability at 0.05 µM ([3]; Homo sapiens, GB239x3, QST 50 nM (log[nM] 1.69897), read-out: Cell viability (fraction of DMSO control)): 46.2%
viability at 0.1 µM ([3]; Homo sapiens, GB239x3, QST 100 nM (log[nM] 2), read-out: Cell viability (fraction of DMSO control)): 26%
viability at 0.25 µM ([3]; Homo sapiens, GB239x3, QST 250 nM (log[nM] 2.39794), read-out: Cell viability (fraction of DMSO control)): 15.6%
viability at 0.5 µM ([3]; Homo sapiens, GB239x3, QST 500 nM (log[nM] 2.69897), read-out: Cell viability (fraction of DMSO control)): 11.2%
viability at 1 µM ([3]; Homo sapiens, GB239x3, QST 1000 nM (log[nM] 3), read-out: Cell viability (fraction of DMSO control)): 8.92%
pIC50 ([3]; Homo sapiens, GB239, 3-5 days): 7.39
Cell viability (fraction of DMSO control) ([4]; QST 10 nM (log[nM] 1)): 0.8102 and 0.8005
Cell viability (fraction of DMSO control) ([4]; QST 25 nM (log[nM] 1.39794)): 0.6353 and 0.6191
Cell viability (fraction of DMSO control) ([4]; QST 50 nM (log[nM] 1.69897)): 0.4839 and 0.5154
Cell viability (fraction of DMSO control) ([4]; QST 100 nM (log[nM] 2)): 0.3119 and 0.4774
